Source: ChEMBL document CHEMBL5465560, “Selectivity Literature for EUbOPEN Chemogenomic Library” (2024)

How the values were obtained:
[1] = biological target: T1, Dual specificity mitogen-activated protein kinase kinase 3 (Homo sapiens) (UniProt P46734); test: Selectivity interaction (KinomeScan (DiscoverX)) EUB0000092b MAP2K3; conditions: at 10 µM
T1 sequence (whole entry): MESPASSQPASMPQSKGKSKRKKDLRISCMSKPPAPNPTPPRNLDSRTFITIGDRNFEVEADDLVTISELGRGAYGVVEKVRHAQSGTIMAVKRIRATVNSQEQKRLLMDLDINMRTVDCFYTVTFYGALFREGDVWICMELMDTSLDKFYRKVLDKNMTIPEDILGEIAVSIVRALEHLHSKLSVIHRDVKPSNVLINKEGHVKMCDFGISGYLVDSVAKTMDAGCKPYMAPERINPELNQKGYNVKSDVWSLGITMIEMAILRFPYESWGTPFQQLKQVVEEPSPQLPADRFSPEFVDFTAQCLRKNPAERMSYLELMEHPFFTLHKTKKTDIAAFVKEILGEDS

[2] = biological target: Tyrosine-protein kinase Srms (Homo sapiens) (UniProt Q9H3Y6); test: Selectivity interaction (KinomeScan (DiscoverX)) EUB0000092b SRMS; conditions: at 10 µM
[3] = biological target: Phosphatidylinositol 4,5-bisphosphate 3-kinase catalytic subunit gamma isoform (Homo sapiens) (UniProt P48736); test: Selectivity interaction (KinomeScan (DiscoverX)) EUB0000655a PIK3CG; conditions: at 10 µM
[4] = biological target: Homeodomain-interacting protein kinase 3 (Homo sapiens, UniProt Q9H422); test: Selectivity interaction (Kinase panel (Z-LYTE Assay)) EUB0001632a HIPK3; conditions: at 10 µM
[5] = tested on: Hepatocyte growth factor receptor (Homo sapiens), P08581 [D1228H]; test: Selectivity interaction (LanthaScreen Eu Kinase Binding Assay) EUB0001632a MET; conditions: at 10 µM
[6] = biological target: Ribosomal protein S6 kinase alpha-1 (Homo sapiens, UniProt Q15418); test: Selectivity interaction (ActivX KiNativ screen (kinase selectivity in THP-1 cell lysates)) EUB0000639a RPS6KA1; assay type: subcellular; conditions: lysate, at 1 µM
[7] = biological target: Dual specificity tyrosine-phosphorylation-regulated kinase 1B (Homo sapiens, UniProt Q9Y463); test: Selectivity interaction (KinomeScan (DiscoverX)) EUB0000045b DYRK1B
[8] = biological target: L-type calcium channel Cav1.2 (CACNA1C) (Homo sapiens, UniProt Q13936); test: Selectivity interaction (Eurofins CEREP Diversity Profile (receptors and ion channels)) EUB0000279b CACNA1C; conditions: at 10 µM, read-out: % of control
[9] = biological target: T2, Serine/threonine-protein kinase Nek5 (Homo sapiens) (UniProt Q6P3R8); test: Selectivity interaction (Ambit KINOMEscan and KiNATiv profiling in Jurkat cells) EUB0000090b NEK5; assay type: cell-based; conditions: at 1 µM
T2 sequence (whole entry): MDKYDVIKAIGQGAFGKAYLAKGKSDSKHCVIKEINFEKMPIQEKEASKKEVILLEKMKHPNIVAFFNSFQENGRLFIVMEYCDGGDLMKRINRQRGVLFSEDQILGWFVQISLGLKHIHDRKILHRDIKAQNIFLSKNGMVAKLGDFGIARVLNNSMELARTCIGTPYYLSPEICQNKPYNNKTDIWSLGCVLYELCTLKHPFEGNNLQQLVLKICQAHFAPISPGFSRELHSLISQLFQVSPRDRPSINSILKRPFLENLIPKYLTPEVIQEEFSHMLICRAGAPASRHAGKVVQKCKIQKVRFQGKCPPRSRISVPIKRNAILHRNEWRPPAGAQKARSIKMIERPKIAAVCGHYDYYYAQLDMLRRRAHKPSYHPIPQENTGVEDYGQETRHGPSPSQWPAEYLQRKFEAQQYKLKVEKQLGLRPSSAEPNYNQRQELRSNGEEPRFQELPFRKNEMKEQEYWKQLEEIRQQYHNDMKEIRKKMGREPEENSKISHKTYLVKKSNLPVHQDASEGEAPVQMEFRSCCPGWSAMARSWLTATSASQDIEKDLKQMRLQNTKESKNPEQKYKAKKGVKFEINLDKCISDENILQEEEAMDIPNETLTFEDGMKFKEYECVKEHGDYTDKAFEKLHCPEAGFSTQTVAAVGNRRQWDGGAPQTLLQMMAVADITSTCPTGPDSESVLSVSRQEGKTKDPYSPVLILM

[10] = biological target: T3, Serine/threonine-protein kinase BRSK2 (Homo sapiens) (UniProt Q8IWQ3); test: Selectivity interaction (KinomeScan (DiscoverX)) EUB0001619a BRSK2; conditions: at 1 µM
T3 sequence (whole entry): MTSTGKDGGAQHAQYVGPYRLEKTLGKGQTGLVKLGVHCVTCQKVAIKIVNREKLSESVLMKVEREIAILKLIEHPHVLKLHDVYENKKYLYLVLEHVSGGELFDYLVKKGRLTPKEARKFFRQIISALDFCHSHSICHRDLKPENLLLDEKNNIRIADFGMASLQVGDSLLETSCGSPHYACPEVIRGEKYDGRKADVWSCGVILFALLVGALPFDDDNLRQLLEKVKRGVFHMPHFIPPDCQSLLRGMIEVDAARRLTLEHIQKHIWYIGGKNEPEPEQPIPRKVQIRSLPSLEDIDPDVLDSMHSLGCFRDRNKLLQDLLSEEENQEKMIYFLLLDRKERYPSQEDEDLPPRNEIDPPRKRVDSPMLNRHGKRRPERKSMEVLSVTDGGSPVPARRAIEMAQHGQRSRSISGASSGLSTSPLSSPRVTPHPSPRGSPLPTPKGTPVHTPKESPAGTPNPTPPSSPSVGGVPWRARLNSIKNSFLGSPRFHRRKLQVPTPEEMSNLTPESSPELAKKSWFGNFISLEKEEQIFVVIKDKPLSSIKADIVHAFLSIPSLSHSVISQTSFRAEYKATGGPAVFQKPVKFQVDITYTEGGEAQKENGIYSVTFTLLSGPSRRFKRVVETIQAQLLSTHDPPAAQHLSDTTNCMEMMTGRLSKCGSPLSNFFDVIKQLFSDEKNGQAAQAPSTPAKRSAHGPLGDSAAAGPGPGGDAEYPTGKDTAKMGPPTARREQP

Chain of Dual specificity tyrosine-phosphorylation-regulated kinase 1B (Q9Y463 whole entry, looked up): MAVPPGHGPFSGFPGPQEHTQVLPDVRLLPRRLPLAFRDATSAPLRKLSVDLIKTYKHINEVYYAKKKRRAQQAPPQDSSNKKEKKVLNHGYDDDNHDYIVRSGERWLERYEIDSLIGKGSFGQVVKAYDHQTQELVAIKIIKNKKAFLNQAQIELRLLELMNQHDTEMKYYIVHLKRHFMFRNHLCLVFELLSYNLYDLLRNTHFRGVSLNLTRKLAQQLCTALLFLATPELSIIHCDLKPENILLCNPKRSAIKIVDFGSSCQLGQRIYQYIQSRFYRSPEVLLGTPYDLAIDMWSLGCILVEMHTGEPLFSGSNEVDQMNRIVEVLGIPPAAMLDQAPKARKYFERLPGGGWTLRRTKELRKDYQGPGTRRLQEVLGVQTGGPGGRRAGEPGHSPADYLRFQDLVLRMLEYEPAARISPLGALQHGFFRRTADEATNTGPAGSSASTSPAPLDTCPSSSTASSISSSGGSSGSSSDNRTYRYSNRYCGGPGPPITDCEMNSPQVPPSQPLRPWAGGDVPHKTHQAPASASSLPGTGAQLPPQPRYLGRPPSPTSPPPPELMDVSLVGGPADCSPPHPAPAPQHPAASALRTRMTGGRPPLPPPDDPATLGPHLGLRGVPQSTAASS
Chain of Phosphatidylinositol 4,5-bisphosphate 3-kinase catalytic subunit gamma isoform (Homo sapiens) (P48736 whole entry, looked up, canonical isoform): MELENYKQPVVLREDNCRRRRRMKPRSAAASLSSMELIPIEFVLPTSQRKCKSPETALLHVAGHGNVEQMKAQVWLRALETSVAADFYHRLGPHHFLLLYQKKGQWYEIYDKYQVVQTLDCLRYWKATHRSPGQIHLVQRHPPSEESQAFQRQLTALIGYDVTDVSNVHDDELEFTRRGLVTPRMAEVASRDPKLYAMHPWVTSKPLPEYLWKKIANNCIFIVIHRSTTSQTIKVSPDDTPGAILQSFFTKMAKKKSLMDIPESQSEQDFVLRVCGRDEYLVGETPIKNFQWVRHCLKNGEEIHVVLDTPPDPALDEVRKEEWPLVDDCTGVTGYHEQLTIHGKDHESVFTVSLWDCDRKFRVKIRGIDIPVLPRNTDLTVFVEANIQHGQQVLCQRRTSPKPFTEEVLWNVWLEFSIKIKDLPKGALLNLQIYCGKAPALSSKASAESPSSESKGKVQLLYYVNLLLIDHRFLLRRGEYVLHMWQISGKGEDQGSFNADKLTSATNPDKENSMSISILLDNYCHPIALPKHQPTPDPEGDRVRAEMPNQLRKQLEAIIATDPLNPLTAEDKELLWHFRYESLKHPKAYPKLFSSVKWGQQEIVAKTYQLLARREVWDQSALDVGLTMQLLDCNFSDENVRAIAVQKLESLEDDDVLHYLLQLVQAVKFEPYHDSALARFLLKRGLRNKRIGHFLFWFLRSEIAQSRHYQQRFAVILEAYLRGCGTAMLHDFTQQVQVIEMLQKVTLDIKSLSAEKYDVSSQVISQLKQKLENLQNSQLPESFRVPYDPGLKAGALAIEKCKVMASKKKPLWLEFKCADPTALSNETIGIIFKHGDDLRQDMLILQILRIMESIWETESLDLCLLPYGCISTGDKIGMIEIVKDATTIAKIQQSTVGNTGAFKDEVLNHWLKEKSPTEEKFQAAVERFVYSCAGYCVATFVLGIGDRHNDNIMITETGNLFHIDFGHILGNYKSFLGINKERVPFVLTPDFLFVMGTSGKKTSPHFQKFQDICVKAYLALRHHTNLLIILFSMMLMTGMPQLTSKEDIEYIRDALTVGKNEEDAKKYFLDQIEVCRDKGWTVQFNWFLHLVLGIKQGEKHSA
Chain of Homeodomain-interacting protein kinase 3 (Q9H422 whole entry, looked up): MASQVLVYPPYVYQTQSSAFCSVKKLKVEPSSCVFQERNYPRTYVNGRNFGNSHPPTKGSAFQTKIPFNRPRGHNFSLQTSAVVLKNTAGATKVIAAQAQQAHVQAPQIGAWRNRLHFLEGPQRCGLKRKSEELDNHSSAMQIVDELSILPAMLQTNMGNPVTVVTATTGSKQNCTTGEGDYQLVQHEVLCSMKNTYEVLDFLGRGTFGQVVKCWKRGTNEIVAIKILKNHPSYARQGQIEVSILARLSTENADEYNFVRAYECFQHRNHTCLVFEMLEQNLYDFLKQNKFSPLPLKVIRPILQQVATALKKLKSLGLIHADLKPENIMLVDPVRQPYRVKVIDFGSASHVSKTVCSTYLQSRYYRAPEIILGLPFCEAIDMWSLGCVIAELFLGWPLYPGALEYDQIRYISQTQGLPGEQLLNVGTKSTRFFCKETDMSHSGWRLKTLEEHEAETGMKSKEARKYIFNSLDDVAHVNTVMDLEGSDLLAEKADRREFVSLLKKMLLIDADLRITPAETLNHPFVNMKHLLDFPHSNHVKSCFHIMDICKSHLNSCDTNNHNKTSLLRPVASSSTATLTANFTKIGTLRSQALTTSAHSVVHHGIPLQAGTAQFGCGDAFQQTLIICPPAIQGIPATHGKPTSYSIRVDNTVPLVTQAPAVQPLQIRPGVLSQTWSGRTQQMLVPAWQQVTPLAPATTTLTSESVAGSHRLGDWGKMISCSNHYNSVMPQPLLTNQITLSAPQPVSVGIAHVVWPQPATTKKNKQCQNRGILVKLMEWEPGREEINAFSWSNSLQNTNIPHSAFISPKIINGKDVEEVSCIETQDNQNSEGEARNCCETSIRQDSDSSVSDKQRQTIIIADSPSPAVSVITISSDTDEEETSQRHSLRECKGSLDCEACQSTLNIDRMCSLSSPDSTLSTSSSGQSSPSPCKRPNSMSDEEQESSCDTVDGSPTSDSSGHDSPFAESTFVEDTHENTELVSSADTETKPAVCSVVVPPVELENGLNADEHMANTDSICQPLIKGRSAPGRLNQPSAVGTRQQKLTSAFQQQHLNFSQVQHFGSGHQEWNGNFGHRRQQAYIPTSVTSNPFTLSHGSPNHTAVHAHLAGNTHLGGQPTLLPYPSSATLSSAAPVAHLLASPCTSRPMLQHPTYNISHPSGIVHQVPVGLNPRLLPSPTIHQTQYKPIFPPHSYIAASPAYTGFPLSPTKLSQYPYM
Chain of Ribosomal protein S6 kinase alpha-1 (Q15418 whole entry): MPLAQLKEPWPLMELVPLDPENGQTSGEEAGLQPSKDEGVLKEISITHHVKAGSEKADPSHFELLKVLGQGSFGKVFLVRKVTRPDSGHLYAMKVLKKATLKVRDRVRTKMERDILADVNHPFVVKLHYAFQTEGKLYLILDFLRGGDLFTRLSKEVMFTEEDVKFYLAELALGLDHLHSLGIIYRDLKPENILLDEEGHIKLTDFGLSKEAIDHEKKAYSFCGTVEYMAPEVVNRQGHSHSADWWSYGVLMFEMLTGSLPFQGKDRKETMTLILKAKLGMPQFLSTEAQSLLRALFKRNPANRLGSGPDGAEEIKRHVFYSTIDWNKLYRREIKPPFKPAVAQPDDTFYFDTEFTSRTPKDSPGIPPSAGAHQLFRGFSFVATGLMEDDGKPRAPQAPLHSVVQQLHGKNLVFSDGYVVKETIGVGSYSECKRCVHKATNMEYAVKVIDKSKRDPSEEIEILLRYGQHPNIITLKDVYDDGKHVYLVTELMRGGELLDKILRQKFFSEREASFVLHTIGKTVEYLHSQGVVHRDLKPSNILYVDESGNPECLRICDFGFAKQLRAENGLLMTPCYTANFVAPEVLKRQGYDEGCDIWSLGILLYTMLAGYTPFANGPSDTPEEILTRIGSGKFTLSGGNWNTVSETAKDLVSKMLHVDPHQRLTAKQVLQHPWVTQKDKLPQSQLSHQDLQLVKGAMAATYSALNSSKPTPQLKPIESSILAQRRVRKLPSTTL
Chain of Tyrosine-protein kinase Srms (Homo sapiens) (Q9H3Y6 whole entry, canonical isoform): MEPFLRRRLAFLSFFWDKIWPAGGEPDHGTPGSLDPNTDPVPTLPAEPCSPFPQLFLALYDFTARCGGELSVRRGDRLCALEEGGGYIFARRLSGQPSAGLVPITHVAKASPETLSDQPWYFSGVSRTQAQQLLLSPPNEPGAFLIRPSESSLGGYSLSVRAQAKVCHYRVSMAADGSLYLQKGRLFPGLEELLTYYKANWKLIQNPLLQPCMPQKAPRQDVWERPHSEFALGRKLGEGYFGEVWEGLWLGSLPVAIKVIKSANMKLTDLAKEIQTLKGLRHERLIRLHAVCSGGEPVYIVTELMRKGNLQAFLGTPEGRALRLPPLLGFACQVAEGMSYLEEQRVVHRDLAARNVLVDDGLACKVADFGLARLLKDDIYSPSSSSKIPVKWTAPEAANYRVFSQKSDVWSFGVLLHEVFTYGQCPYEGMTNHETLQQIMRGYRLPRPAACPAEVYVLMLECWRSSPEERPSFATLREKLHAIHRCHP

Compound CCC(=O)N1CCN(c2ccc(-n3c(=O)ccc4cnc5ccc(-c6cnc7ccccc7c6)cc5c43)cc2C(F)(F)F)CC1 has a % of control [1] of 80% and a % of control [2] of 92%.

Work on CN(C)CCOc1ccc(-c2nc(-c3ccncc3)c(-c3ccc4c(c3)CC/C4=N\O)[nH]2)cc1 yielded a % of control [3] of 84%.

With Cn1cc(-n2cnc3c(NCc4nc5cc(Cl)c(Cl)cc5[nH]4)nc(N4CCOCC4)nc32)cn1 the % of control [4] was 0.256% and the % of inhibition [5] was -208%.

With CC[C@@H]1[C@H](F)C(=O)N[C@@H]1COc1nccc2cc(C(N)=O)c(OC)cc12 [ZIMLOVISERTIB] the % of inhibition [6] was -1%.

Work on C=CC(=O)Nc1cc(-n2c(=O)ccc3cnc4ccc(-c5ccc(NS(C)(=O)=O)cc5)cc4c32)ccc1C yielded a % of control ([7]; at 1 µM) of 100% and a % of control ([7]; at 10 µM) of 81%.

CC(=O)c1cc(-c2ccccc2OCC2CC2)c2ncccn12 gave an activity [8] of 89%.

CN(C)C/C=C/C(=O)Nc1ccc(C(=O)N2CCCC(Nc3ncc(Cl)c(-c4c[nH]c5ccccc45)n3)C2)cc1 (stereo unspecified) was tested, and the % of control [9] was 86%.

For N#Cc1cccc(-c2c[nH]c3ncnc(N4CCOCC4)c23)c1, the % of control [10] was 85%.
